Activity calls are given as the source filed them.
Experiments:
[1] = molecular target: 5-hydroxytryptamine receptor 1A (Homo sapiens, UniProt P08908); format: functional
[2] = molecular target: T1, Neuropeptides B/W receptor type 1 (Homo sapiens, UniProt P48145); assay: Fluorescence-based dose response cell-based high throughput screening assay to identify antagonists of the G-protein coupled receptor 7 (GPR7). [Related pubchem assays: 1952 (Screening assay (GPR7 antagonists).), 1880 (Summary AID.)]; format: functional
T1 sequence (P48145 whole entry): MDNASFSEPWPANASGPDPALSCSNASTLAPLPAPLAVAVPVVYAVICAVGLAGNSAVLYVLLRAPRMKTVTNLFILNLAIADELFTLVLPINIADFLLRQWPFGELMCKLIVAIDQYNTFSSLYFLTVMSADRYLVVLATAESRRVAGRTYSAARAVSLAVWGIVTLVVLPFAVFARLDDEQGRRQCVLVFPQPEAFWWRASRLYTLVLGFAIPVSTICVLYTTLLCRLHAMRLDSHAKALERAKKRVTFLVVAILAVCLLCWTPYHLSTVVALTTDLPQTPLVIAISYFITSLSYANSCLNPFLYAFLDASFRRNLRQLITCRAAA

[3] = molecular target: Melanin-concentrating hormone receptor 1 (Homo sapiens, UniProt Q99705); assay: Fluorescence-based counterscreen for antagonists of the G-protein coupled receptor 7 (GPR7): cell-based high throughput dose response assay to identify antagonists of the melanin-concentrating hormone receptor 1 (MCHR1).; format: functional
[4] = molecular target: RNA-editing ligase 1, mitochondrial (Trypanosoma brucei brucei, UniProt P86926); assay: TbREL1 ligase inhibitors, dose response, biochemical, fluorescence, Trypanosoma brucei (AID 1117295); format: functional
[5] = P. falciparum 3D7-ScDHODH growth inhibitors, dose response, SYBR Green, dry powder samples (AID 1159570); format: functional, cell-based;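 further: parasite growth measured after 72 hours of compound exposure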
[6] = HepG2 cell cytotoxicity, dose response, cytotoxicity control, plate reader, dry powder samples (AID 1159569); format: functional, cell-based;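 further: inhibitor potency with signal falling toward the positive control level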
[7] = P. falciparum Dd2 growth inhibitors, dose response, SYBR Green, cherry-picked samples (AID 1159567); format: functional, cell-based
[8] = P. falciparum Dd2 growth inhibitors, dose response, SYBR Green, dry powder samples (AID 1159566); format: functional, cell-based;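 further: potency for growth inhibition with lower SYBR green DNA signal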
[9] = P. falciparum ATP4 D1247Y mutant growth inhibitors, dose response, NITD609-resistant line, SYBR Green, dry powder (AID 1159571); format: functional, cell-based;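 further: parasites synchronized at ring stage by sorbitol before testing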
Phospholipase D1 = Phospholipase D1 (Homo sapiens, UniProt Q13393); assay: PLD1 Cellular Concentration Response Study.; format: functional
Phospholipase D2 = Phospholipase D2 (Homo sapiens, UniProt O14939); assay: PLD2 Cellular Concentration Response Study.; format: functional
[10] = HeLa 4N DNA content increase, dose response, cell-based, IC50 (AID 1117351); format: functional
[11] = molecular target: T2, Corticotropin-releasing factor receptor 2/Corticotropin-releasing factor-binding protein (Homo sapiens, UniProt P24387+Q13324); assay: Dose Response confirmation of uHTS hits for small molecule antagonists of the CRF-binding protein and CRF-R2 receptor complex.; format: functional; conditions: read-out: IC50_Mean
T2 sequence (Q13324 whole entry): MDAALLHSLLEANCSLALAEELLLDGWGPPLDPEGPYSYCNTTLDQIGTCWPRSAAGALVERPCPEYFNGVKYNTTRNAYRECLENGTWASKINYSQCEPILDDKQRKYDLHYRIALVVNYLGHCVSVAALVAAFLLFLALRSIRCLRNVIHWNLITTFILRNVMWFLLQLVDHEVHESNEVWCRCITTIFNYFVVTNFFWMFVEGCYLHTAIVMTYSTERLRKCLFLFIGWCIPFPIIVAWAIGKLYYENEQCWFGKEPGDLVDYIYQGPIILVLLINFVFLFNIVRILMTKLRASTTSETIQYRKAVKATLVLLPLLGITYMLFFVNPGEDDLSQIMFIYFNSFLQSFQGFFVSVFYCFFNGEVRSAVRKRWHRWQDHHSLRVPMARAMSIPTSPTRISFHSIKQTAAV
T2 sequence (P24387 whole entry): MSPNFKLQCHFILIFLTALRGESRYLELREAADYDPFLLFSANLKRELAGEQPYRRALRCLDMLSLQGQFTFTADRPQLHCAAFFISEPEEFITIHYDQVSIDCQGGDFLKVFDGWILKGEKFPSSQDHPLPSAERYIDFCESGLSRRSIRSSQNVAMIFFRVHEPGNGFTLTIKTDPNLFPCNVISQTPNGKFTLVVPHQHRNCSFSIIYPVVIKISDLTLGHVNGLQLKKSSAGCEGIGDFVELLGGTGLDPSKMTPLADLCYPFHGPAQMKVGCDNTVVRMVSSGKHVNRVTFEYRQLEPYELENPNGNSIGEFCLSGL

[12] = molecular target: T2, Corticotropin-releasing factor receptor 2/Corticotropin-releasing factor-binding protein; assay: activators of CRF receptor 2 with binding protein – uHTS hits, confirmation (AID 602473); format: functional; conditions: read-out: EC50_Mean
[13] = HeLa 2N DNA content increase, dose response, cell-based, IC50 (AID 1117349); format: functional
[14] = HepG2 cell cytotoxicity, dose response, cytotoxicity control, plate reader, dry powder, set 6 (AID 743311); format: functional, cell-based
cells = conditions: HEK293
Paired box protein Pax-8 = Paired box protein Pax-8 (Homo sapiens, UniProt Q06710); assay: inhibitors of PAX8-driven TPO luciferase reporter, dose response, RMG-I cells, cherry-pick (AID 687027); format: functional, cell-based;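 further: luciferase reporter driven by Pax8 target thyroperoxidase promoter measured by SteadyGlo luminescence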
[15] = NIH:OVCAR-3 ovarian cancer cell cytotoxicity, dose response, PAX8 inhibitor project, plate reader, dry powder samples (AID 743044); format: functional, cell-based
[16] = P. falciparum Dd2 growth inhibitors, dose response, SYBR Green, dry powder samples, set 9 (AID 1159568); format: functional, cell-based

Sequence of Paired box protein Pax-8 (Q06710 whole entry): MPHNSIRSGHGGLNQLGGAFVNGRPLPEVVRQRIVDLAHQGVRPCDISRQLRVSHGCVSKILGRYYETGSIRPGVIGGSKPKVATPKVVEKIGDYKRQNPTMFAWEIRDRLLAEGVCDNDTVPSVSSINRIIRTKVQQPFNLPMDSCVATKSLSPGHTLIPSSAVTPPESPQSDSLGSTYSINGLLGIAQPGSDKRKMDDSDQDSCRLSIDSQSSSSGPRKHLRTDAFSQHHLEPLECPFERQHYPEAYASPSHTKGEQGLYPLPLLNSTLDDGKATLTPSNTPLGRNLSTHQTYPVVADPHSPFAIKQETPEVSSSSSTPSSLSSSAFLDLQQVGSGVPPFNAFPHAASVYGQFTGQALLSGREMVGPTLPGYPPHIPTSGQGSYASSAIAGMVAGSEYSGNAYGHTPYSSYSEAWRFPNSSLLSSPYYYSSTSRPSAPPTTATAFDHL
Sequence of RNA-editing ligase 1, mitochondrial (P86926 whole entry): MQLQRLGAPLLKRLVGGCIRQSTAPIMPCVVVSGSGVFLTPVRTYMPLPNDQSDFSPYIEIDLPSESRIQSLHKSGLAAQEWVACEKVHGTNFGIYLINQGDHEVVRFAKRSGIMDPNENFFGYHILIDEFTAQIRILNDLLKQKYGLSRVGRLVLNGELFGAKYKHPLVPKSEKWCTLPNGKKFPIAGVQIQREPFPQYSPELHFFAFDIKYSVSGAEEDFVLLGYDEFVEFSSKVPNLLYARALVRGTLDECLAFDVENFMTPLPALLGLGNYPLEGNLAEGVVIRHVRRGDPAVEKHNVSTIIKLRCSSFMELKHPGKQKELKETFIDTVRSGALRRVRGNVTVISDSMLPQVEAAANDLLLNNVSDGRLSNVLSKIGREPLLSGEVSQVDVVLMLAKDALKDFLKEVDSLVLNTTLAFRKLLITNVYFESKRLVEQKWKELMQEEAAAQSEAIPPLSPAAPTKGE
Sequence of 5-hydroxytryptamine receptor 1A (P08908 whole entry): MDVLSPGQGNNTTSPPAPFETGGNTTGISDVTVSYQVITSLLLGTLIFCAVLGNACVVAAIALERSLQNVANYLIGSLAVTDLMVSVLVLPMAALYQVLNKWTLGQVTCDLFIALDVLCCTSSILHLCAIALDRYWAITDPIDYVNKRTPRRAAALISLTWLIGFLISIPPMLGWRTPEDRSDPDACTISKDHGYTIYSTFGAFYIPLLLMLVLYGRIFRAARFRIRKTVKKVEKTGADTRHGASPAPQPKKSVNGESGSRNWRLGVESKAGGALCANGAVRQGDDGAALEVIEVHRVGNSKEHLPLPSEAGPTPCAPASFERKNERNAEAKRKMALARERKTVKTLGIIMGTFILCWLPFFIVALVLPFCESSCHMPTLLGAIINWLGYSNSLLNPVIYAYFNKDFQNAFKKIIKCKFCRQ
Sequence of Phospholipase D1 (Q13393 whole entry): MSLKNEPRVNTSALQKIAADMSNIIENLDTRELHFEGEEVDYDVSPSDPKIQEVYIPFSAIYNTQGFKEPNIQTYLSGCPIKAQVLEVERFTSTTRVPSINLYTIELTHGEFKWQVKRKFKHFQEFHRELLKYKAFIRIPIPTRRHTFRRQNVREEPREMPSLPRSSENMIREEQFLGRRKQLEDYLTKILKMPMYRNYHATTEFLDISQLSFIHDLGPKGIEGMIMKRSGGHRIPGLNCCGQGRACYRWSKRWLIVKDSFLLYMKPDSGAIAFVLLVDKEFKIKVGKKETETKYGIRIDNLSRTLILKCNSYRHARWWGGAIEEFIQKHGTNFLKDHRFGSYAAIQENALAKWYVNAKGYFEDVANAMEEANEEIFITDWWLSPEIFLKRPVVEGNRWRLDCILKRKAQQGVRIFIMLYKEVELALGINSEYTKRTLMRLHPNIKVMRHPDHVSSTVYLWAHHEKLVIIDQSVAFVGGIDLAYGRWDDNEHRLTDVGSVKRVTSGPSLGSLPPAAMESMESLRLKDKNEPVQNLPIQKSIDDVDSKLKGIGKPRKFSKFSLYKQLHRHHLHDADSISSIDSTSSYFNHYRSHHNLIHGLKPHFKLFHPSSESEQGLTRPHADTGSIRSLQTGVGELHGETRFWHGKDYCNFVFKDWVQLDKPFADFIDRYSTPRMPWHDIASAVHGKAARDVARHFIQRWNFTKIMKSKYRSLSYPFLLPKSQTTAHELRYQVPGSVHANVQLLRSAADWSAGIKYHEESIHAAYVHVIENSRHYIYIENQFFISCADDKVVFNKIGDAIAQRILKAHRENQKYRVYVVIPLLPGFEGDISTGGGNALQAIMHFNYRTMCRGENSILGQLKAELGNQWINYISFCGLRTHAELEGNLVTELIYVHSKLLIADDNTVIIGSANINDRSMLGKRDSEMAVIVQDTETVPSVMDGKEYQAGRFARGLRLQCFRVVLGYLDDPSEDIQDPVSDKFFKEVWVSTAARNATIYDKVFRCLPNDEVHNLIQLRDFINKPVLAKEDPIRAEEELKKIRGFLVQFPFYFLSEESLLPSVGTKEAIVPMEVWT
Sequence of Melanin-concentrating hormone receptor 1 (Q99705 whole entry): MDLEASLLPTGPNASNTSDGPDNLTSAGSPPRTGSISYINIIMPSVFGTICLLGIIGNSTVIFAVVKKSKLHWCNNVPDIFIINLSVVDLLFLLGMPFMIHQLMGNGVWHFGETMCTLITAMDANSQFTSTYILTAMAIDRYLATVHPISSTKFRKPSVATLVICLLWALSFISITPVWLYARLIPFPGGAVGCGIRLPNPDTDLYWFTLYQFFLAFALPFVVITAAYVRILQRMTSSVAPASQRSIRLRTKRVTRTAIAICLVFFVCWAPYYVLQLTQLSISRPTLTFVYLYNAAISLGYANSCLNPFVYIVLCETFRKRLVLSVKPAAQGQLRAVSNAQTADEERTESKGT
Sequence of Phospholipase D2 (O14939 whole entry): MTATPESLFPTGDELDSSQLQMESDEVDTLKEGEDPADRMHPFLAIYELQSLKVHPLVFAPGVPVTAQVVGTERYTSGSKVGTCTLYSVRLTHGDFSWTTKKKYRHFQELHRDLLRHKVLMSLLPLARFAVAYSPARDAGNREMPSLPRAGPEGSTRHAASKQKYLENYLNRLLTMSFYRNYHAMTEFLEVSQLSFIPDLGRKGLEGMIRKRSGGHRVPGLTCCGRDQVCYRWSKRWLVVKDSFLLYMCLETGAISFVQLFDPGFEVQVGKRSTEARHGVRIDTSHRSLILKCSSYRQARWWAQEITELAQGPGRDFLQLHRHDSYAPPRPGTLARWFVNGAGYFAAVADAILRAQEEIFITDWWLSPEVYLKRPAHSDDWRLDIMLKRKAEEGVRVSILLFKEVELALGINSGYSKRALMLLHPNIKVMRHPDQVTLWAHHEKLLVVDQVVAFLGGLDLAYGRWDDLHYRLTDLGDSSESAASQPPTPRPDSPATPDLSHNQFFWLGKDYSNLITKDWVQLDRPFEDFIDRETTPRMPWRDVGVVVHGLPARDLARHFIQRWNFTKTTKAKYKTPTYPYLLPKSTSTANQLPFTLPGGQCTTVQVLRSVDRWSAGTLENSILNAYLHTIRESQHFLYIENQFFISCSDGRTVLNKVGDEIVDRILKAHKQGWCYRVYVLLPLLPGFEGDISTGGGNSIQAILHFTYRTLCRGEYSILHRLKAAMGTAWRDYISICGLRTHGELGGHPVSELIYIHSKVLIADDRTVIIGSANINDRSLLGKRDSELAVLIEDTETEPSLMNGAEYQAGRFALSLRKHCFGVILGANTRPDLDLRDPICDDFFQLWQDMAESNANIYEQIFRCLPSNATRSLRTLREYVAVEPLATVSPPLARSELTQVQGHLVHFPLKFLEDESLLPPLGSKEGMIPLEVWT

O=C(NCc1ccccc1)NC1(C(=O)N2CCCC2)CCCCC1
EC50 [1]: > 50 µM (not active)

COc1ccc(S(=O)(=O)N(CC(=O)Nc2ccc(S(=O)(=O)N3CCOCC3)cc2)Cc2ccc(F)cc2)cc1
IC50 [2]: > 43.8 µM (not active)
IC50 [3]: > 43.8 µM (not active)

C=CCNC1=NC(c2cccc(F)c2)C(C(=O)OC)=C(C)N1Cc1cccc(C(F)(F)F)c1 (stereo not given)
IC50 [4]: > 96.6 µM (inactive)

C/C=C/c1ccc([C@H]2[C@@H](CO)N(CC3CCCC3)[C@@H]2CNC(=O)NC(C)C)cc1
AC50 [5]: 2.73 µM (active)
AC50 [6]: 25.4 µM (active)
AC50 [7]: 2.71 µM (active)
AC50 [8]: 1.91 µM (active)
AC50 [9]: 2.41 µM (active)

O=C(NCCN1CCC2(CC1)C(=O)NCN2CC1CC1)c1ccc2ccccc2c1
IC50 (Phospholipase D1): 20 µM (active)
IC50 (Phospholipase D2): 2.05 µM (active)

Nc1nc(F)nc2c1ncn2[C@@H]1O[C@H](CO)[C@@H](O)[C@@H]1O [FLUDARABINE]
IC50 [10]: > 10 µM (inactive)
IC50 [11]: > 47.1 µM (inactive)
EC50 [12]: > 53 µM (inactive)
IC50 [13]: > 10 µM (inactive)

Cc1ccc(C(C)C)c(OCCn2c(N)nc3ccccc32)c1
AC50 [14]: 4.5 µM (active)
AC50 (cells): 19.1 µM (active)

Cc1cccc(S(=O)(=O)N2CC[C@@H]3[C@H](CO)N(C)c4ccc(-c5ccc(C#N)cc5)cc4[C@@H]32)c1
AC50 (Paired box protein Pax-8): 10.1 µM (active)
AC50 [15]: 67.7 µM (active)

C(=C\c1ccc([C@H]2[C@@H]3CN(Cc4nccs4)C[C@H]2N3)cc1)/c1ccccc1
AC50 [16]: 11.2 µM (active)

Source: ChEMBL document CHEMBL1201862, “PubChem BioAssay data set” (2004)
